Target: T1, human SARM1(50-724) (Homo sapiens, UniProt Q6SZW1)
T1 construct: 40 nM human SARM1(50-724)
T1 sequence (Q6SZW1 50-724): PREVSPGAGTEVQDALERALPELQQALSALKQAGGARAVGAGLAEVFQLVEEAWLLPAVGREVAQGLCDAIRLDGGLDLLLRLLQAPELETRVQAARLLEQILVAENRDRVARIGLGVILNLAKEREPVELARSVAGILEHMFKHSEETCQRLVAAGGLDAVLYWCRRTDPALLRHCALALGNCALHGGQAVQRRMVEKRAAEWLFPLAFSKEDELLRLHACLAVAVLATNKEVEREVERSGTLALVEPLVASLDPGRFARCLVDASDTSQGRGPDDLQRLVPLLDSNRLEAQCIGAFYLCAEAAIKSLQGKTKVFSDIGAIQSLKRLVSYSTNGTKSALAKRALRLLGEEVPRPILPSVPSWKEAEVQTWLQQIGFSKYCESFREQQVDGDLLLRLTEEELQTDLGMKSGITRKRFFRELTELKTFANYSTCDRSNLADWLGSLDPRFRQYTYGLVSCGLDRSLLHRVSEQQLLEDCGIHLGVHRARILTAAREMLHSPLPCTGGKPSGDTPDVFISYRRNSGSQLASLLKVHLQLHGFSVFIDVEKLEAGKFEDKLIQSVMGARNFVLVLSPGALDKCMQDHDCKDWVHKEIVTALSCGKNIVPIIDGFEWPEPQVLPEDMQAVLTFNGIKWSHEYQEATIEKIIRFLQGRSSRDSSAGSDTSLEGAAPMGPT
Assay: SARM1 NADase biochemical assay (HPLC of NAD and NAM)
Conditions: 40 nM human SARM1(50-724), 0.3 mM NMN, 20 μM NAD, 60 minutes room temperature; dose-response from 100 μM, 1:3 dilution
In short: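 Human SARM1(50-724) at 40 nM with 0.3 mM NMN, 20 μM NAD, 1 mM TCEP in 25 mM HEPES pH 7.4, 10 mM KCl, 10 mM MgCl2, 1% DMSO; 60 min at room temperature, formic acid quench. NAD and NAM quantified by reverse-phase HPLC peak area; single point 50 μM or 1:3 series from 100 μM.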

Row | Structure (SMILES) | IC50 [nM]
1 | N#Cc1c(F)cc(CCC(=O)Nc2cc(-c3ccncc3)n[nH]2)cc1F [Example 104, 3-(4-Cyano-3,5-difluorophenyl)-N-(3-(pyridin-4-yl)-1H-pyrazol-5-yl)propanamide] | < 1000
2 | Cc1cnccc1-c1n[nH]c(NC(=O)CCc2cc(F)c(Cl)c(F)c2)c1C [Example 111, 3-(4-Chloro-3,5-difluorophenyl)-N-(4-methyl-3-(3-methylpyridin-4-yl)-1H-pyrazol-5-yl)propanamide] | < 1000
3 | Cc1cnccc1-c1n[nH]c(NC(=O)CCc2ccc(C#N)c(F)c2)c1C [Example 112, 3-(4-Cyano-3-fluorophenyl)-N-(4-methyl-3-(3-methylpyridin-4-yl)-1H-pyrazol-5-yl)propanamide] | 1000 to 10000
4 | Cc1cnccc1-c1n[nH]c(NC(=O)CCc2cc(F)c(C#N)c(F)c2)c1C [Example 113] | 1000 to 10000
5 | O=C(CCc1cc(F)c(Cl)c(F)c1)Nc1[nH]nc(-c2ccncc2)c1CO [Example 117, 3-(4-Chloro-3,5-difluorophenyl)-N-(4-(hydroxymethyl)-3-(pyridin-4-yl)-1H-pyrazol-5-yl)propanamide] | < 1000
6 | O=C(CCc1ccc(Cl)c(F)c1)Nc1[nH]nc(-c2ccncc2)c1CO [Example 118] | < 1000
7 | O=C(CCc1cc(F)c(F)c(F)c1)Nc1[nH]nc(-c2ccncc2)c1CO [Example 119] | < 1000
8 | Cc1c(-c2ccncc2)n[nH]c1NC(=O)C[S+]([O-])c1ccc(Cl)cc1 (centres unmarked) [Example 120, 2-((4-chlorophenyl)sulfinyl)-N-(4-methyl-3-(pyridin-4-yl)-1H-pyrazol-5-yl)acetamide] | < 1000
9 | Cc1c(-c2ccncc2)n[nH]c1NC(=O)CS(=O)(=O)c1ccc(Cl)cc1 [Example 121, 2-((4-chlorophenyl)sulfonyl)-N-(4-methyl-3-(pyridin-4-yl)-1H-pyrazol-5-yl)acetamide] | < 1000
10 | O=C(CCc1cc(F)c(Cl)c(F)c1)Nc1cnn(-c2ccncc2)c1Br [Example 127, N-[5-Bromo-1-(pyridin-4-yl)-1H-pyrazol-4-yl]-3-(4-chloro-3,5-difluorophenyl)propanamide] | < 1000
11 | N#Cc1c(F)cc(CCC(=O)Nc2[nH]nc(-c3ccncc3)c2Cl)cc1F [Example 128] | < 1000
12 | N#Cc1ccc(CCC(=O)Nc2[nH]nc(-c3ccncc3)c2Cl)cc1F [Example 129] | < 1000
13 | Cc1c(-c2ccncc2)n[nH]c1NC(=O)C1CC1c1ccc(Cl)cc1 (centres unmarked) [Example 135, 2-(4-Chlorophenyl)-N-(4-methyl-3-(pyridin-4-yl)-1H-pyrazol-5-yl)cyclopropane-1-carboxamide] | 1000 to 10000
14 | Cc1c(-c2ccncc2)n[nH]c1N1CCC(c2ccc(Cl)cc2)CC1=O (centres unmarked) [Example 138, 4-(4-Chlorophenyl)-1-(4-methyl-3-(pyridin-4-yl)-1H-pyrazol-5-yl)piperidin-2-one] | < 1000
15 | Cc1c(-c2ccncc2)n[nH]c1NC(=O)NCc1ccc(C#N)cc1 [Example 141, 1-[(4-Cyanophenyl)methyl]-3-[4-methyl-3-(pyridin-4-yl)-1H-pyrazol-5-yl]urea] | < 1000
16 | Cc1c(-c2ccncc2)n[nH]c1NC(=O)NCc1ccc(F)cc1 [Example 142, 1-[(4-Fluorophenyl)methyl]-3-[4-methyl-3-(pyridin-4-yl)-1H-pyrazol-5-yl]urea] | < 1000
17 | Cc1c(-c2ccncc2)n[nH]c1NC(=O)NCc1ccc(Cl)nc1 [Example 143, 1-[(6-Chloropyridin-3-yl)methyl]-3-[4-methyl-3-(pyridin-4-yl)-1H-pyrazol-5-yl]urea] | < 1000
18 | O=C(NCc1cc(F)c(F)c(F)c1)Nc1[nH]nc(-c2ccncc2)c1Cl [Example 145, 1-(4-Chloro-3-(pyridin-4-yl)-1H-pyrazol-5-yl)-3-(3,4,5-trifluorobenzyl)urea] | < 1000
19 | N#Cc1c(F)cc(CC2CCN(c3cc(-c4ccncc4)n[nH]3)C2=O)cc1F (centres unmarked) [Example 146, 2,6-Difluoro-4-((2-oxo-1-(3-(pyridin-4-yl)-1H-pyrazol-5-yl)pyrrolidin-3-yl)methyl)benzonitrile] | < 1000
20 | Cc1c(-c2ccncc2)n[nH]c1NC(=O)N[C@H](C)c1ccc(Cl)cc1 [Example 148, (R)-1-(1-(4-Chlorophenyl)ethyl)-3-(4-methyl-3-(pyridin-4-yl)-1H-pyrazol-5-yl)urea] | 1000 to 10000

The remaining lines, values ahead:

Row | IC50 [nM] | Structure (SMILES)
21 | < 1000 | Cn1c(NC(=O)CCc2ccc(Cl)cc2)cnc1-c1ccncc1 [Example 105, 3-(4-Chlorophenyl)-N-(1-methyl-2-(pyridin-4-yl)-1H-imidazol-5-yl)propanamide]
22 | < 1000 | Cc1cnccc1-c1cc(NC(=O)CCc2ccc(Cl)cc2)[nH]n1 [Example 106, 3-(4-Chlorophenyl)-N-(3-(3-methylpyridin-4-yl)-1H-pyrazol-5-yl)propanamide]
23 | 1000 to 10000 | Cc1nn(-c2ccncc2)cc1NC(=O)CCc1ccc(Cl)cc1 [Example 107]
24 | 1000 to 10000 | O=C(CCc1ccc(Cl)cc1)Nc1nc(-c2ccncc2)c[nH]1 [Example 108]
25 | 1000 to 10000 | Cc1cnccc1-n1cc(NC(=O)CCc2ccc(Cl)cc2)cn1 [Example 109, 3-(4-Chlorophenyl)-N-(1-(3-methylpyridin-4-yl)-1H-pyrazol-4-yl)propanamide]
26 | < 1000 | Cc1cnccc1-c1n[nH]c(NC(=O)CCc2ccc(Cl)cc2)c1C [Example 110]
27 | < 1000 | O=C(CCc1ccc(Br)cc1)Nc1cnn(-c2ccncc2)c1 [Example 114, 3-(4-Bromophenyl)-N-(1-(pyridin-4-yl)-1H-pyrazol-4-yl)propanamide]
28 | 1000 to 10000 | O=C(CCc1ccc(F)cc1)Nc1cnn(-c2ccncc2)c1 [Example 115]
29 | < 1000 | O=C(CCc1ccc(Cl)cc1)Nc1[nH]nc(-c2ccncc2)c1CO [Example 116, 3-(4-Chlorophenyl)-N-(4-(hydroxymethyl)-3-(pyridin-4-yl)-1H-pyrazol-5-yl)propanamide]
30 | < 1000 | COc1c(-c2ccncc2)n[nH]c1NC(=O)CCc1ccc(Cl)cc1 [Example 122, 3-(4-Chlorophenyl)-N-(4-methoxy-3-(pyridin-4-yl)-1H-pyrazol-5-yl)propanamide]
31 | < 1000 | O=C(CCc1ccc(Cl)cc1)Nc1[nH]nc(-c2ccncc2)c1C1CC1 [Example 123, 3-(4-Chlorophenyl)-N-(4-cyclopropyl-3-(pyridin-4-yl)-1H-pyrazol-5-yl)propanamide]
32 | < 1000 | Cc1c(-c2ccncc2)n[nH]c1NC(=S)CCc1ccc(Cl)cc1 [Example 124, 3-(4-Chlorophenyl)-N-[4-methyl-3-(pyridin-4-yl)-1H-pyrazol-5-yl]propanethioamide]
33 | < 1000 | O=C(CCc1ccc(Cl)cc1)Nc1[nH]nc(-c2ccncc2)c1C(F)(F)F [Example 125, 3-(4-Chlorophenyl)-N-[3-(pyridin-4-yl)-4-(trifluoromethyl)-1H-pyrazol-5-yl]propanamide]
34 | 1000 to 10000 | O=C(CCc1cccc(Cl)c1)Nc1cnn(-c2ccncc2)c1Cl [Example 126, N-[5-Chloro-1-(pyridin-4-yl)-1H-pyrazol-4-yl]-3-(3-chlorophenyl)propanamide]
35 | < 1000 | Cc1c(-c2ccncc2)n[nH]c1NC(=O)OCc1ccc(Cl)cc1 [Example 130, 4-Chlorobenzyl (4-methyl-3-(pyridin-4-yl)-1H-pyrazol-5-yl)carbamate]
36 | 1000 to 10000 | Cc1c(-c2ccncc2)n[nH]c1NC(=O)N(C)Cc1ccc(Cl)cc1 [Example 131, 1-(4-Chlorobenzyl)-1-methyl-3-(4-methyl-3-(pyridin-4-yl)-1H-pyrazol-5-yl)urea]
37 | 1000 to 10000 | Cn1c(-c2ccncc2)cnc1NC(=O)CCc1ccc(Cl)cc1 [Example 132]
38 | 1000 to 10000 | CN(C(=O)CCc1ccc(Cl)cc1)c1cnn(-c2ccncc2)c1 [Example 134, 3-(4-Chlorophenyl)-N-methyl-N-(1-(pyridin-4-yl)-1H-pyrazol-4-yl)propanamide]
39 | < 1000 | Cc1c(NC(=O)OCc2ccc(Cl)cc2)cnn1-c1ccncc1 [Example 136, 4-Chlorobenzyl (5-methyl-1-(pyridin-4-yl)-1H-pyrazol-4-yl)carbamate]
40 | 1000 to 10000 | Cc1c(NC(=S)CCc2ccc(Cl)cc2)cnn1-c1ccncc1 [Example 137, 3-(4-Chlorophenyl)-N-(5-methyl-1-(pyridin-4-yl)-1H-pyrazol-4-yl)propanethioamide]
41 | < 1000 | Cc1c(-c2ccncc2)n[nH]c1N(C)C(=O)CCc1ccc(Cl)cc1 [Example 139]
42 | < 1000 | C#Cc1ccc(CCC(=O)Nc2[nH]nc(-c3ccncc3)c2C)cc1 [Example 140]
43 | < 1000 | Cc1c(NC(=O)NCc2ccc(Cl)cc2)cnn1-c1ccncc1 [Example 144, 1-(4-Chlorobenzyl)-3-(5-methyl-1-(pyridin-4-yl)-1H-pyrazol-4-yl)urea]
44 | < 1000 | O=C(CCc1ccc(Cl)cc1)Nc1[nH]nc(-c2ccncc2)c1Br [Example 147, N-(4-Bromo-3-(pyridin-4-yl)-1H-pyrazol-5-yl)-3(4-chlorophenyl)propanamide]

From patent US12404265B2, “Substituted pyridine derivatives as SARM1 inhibitors” (Nura Bio, Inc., priority 2020, dated 2025)
